Test results taken from ChEMBL document CHEMBL4765227, “Hit to lead optimization of a series of N-[4-(1,3-benzothiazol-2-yl)phenyl]acetamides as monoacylglycerol lipase inhibitors with potential anticancer activity” (Eur J Med Chem, 2016).

Legend:
Type in all cases: functional
Conditions in all cases: read-out: GI
MDA-MB-435 = experiment: Growth inhibition of human MDA-MB-435 cells at 10 uM incubated for 48 hrs by sulforhodamine B assay relative to control
TK-10 = experiment: Growth inhibition of human TK-10 cells at 10 uM incubated for 48 hrs by sulforhodamine B assay relative to control
UACC-62 = experiment: Growth inhibition of human UACC-62 cells at 10 uM incubated for 48 hrs by sulforhodamine B assay relative to control
CCRF-CEM = experiment: Growth inhibition of human CCRF-CEM cells at 10 uM incubated for 48 hrs by sulforhodamine B assay relative to control
K562 = experiment: Growth inhibition of human K562 cells at 10 uM incubated for 48 hrs by sulforhodamine B assay relative to control
BT-549 = experiment: Growth inhibition of human BT-549 cells at 10 uM incubated for 48 hrs by sulforhodamine B assay relative to control
NCI-H460 = experiment: Growth inhibition of human NCI-H460 cells at 10 uM incubated for 48 hrs by sulforhodamine B assay relative to control
SNB-19 = experiment: Growth inhibition of human SNB-19 cells at 10 uM incubated for 48 hrs by sulforhodamine B assay relative to control
SK-MEL-5 = experiment: Growth inhibition of human SK-MEL-5 cells at 10 uM incubated for 48 hrs by sulforhodamine B assay relative to control
SK-MEL-2 = experiment: Growth inhibition of human SK-MEL-2 cells at 10 uM incubated for 48 hrs by sulforhodamine B assay relative to control
SK-MEL-28 = experiment: Growth inhibition of human SK-MEL-28 cells at 10 uM incubated for 48 hrs by sulforhodamine B assay relative to control
SK-OV-3 = experiment: Growth inhibition of human SK-OV-3 cells at 10 uM incubated for 48 hrs by sulforhodamine B assay relative to control
IGROV-1 = experiment: Growth inhibition of human IGROV-1 cells at 10 uM incubated for 48 hrs by sulforhodamine B assay relative to control
T47D = experiment: Growth inhibition of human T47D cells at 10 uM incubated for 48 hrs by sulforhodamine B assay relative to control
EKVX = experiment: Growth inhibition of human EKVX cells at 10 uM incubated for 48 hrs by sulforhodamine B assay relative to control
A498 = experiment: Growth inhibition of human A498 cells at 10 uM incubated for 48 hrs by sulforhodamine B assay relative to control

| Compound | inhibition of growth at 10 µM (MDA-MB-435) [%] | inhibition of growth at 10 µM (TK-10) [%] | inhibition of growth at 10 µM (UACC-62) [%] | inhibition of growth at 10 µM (CCRF-CEM) [%] | inhibition of growth at 10 µM (K562) [%] | inhibition of growth at 10 µM (BT-549) [%] | inhibition of growth at 10 µM (NCI-H460) [%] | inhibition of growth at 10 µM (SNB-19) [%] | inhibition of growth at 10 µM (SK-MEL-5) [%] | inhibition of growth at 10 µM (SK-MEL-2) [%] | inhibition of growth at 10 µM (SK-MEL-28) [%] | inhibition of growth at 10 µM (SK-OV-3) [%] | inhibition of growth at 10 µM (IGROV-1) [%] | inhibition of growth at 10 µM (T47D) [%] | inhibition of growth at 10 µM (EKVX) [%] | inhibition of growth at 10 µM (A498) [%] |
| --- | --- | --- | --- | --- | --- | --- | --- | --- | --- | --- | --- | --- | --- | --- | --- | --- |
| O=C(CN1CCCCC1)Nc1ccc(-c2nc3ccccc3s2)cc1 | -6.67 | -14.8 | 5.84 | 10.4 | 49.8 | 1.67 | -1.42 | -0.02 | 9.16 | -7.06 | -9.51 | 4.61 | -10.3 | 17.8 | – | – |
| O=C(CNC1CCCCC1)Nc1ccc(-c2nc3ccccc3s2)cc1 | 9.63 | -2.86 | 3.76 | 22.7 | 50.5 | 12.4 | 8.69 | 9.04 | 9.16 | -4.63 | 4.77 | 9.23 | -0.35 | 30.9 | – | – |
| O=C(CNc1nnc(-c2ccc(Cl)cc2)o1)Nc1ccc(-c2nc3ccccc3s2)cc1 | 2.95 | 8.25 | 13.9 | 46.7 | 14.4 | 13 | 0.31 | 9.4 | 7.93 | – | -16.7 | -16.6 | 5.85 | 20.1 | -4.4 | 18 |
| Cc1cc(C)n(CC(=O)Nc2ccc(-c3nc4ccccc4s3)cc2)n1 | -7.5 | -6.36 | 4.67 | 1.49 | -0.21 | -15.3 | -2.37 | 0.22 | 3.6 | – | -8.88 | -14 | 2.57 | 6.7 | -7.86 | 5.37 |
| O=C(CNCc1ccccc1)Nc1ccc(-c2nc3ccccc3s2)cc1 | 4.91 | -12 | 7.61 | 9.29 | 11.6 | 1.91 | 3.57 | 2.46 | 5.63 | -7.25 | 2.7 | -18.4 | -2.9 | 11.6 | – | – |
| O=C(CN1CCOCC1)Nc1ccc(-c2nc3ccccc3s2)cc1 | -7.79 | -12 | -0.01 | 4.51 | 0.74 | -3.57 | 0.34 | -0.79 | 7.27 | -14.6 | -2.13 | -21 | -5.69 | 6.73 | – | – |
| O=C(CNc1ccccc1)Nc1ccc(-c2nc3ccccc3s2)cc1 | 12.6 | -17.9 | 23.5 | 74.3 | 22.5 | 43.5 | 0.08 | 8.22 | 22 | -4.93 | 3.37 | -24.1 | 16.1 | 21.4 | – | – |
